Results from PMC6979384, “Characterization of the plant homeodomain (PHD) reader family for their histone tail interactions” (Epigenetics & Chromatin, 2020).

Key:
Experiment in all cases: Histone peptide microarray
Assay type in all cases: binding, human
[1] = system: ING3; conditions: ING3, GST-tagged; arrays performed twice, n of 4
Summary of the method: (§1)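 GST-tagged PHD readers, 0.5 μM, probed on a microarray of 293 synthetic histone peptides carrying single or combinatorial PTMs (optimized Petell protocol). Signals are averaged over 4 replicates and expressed as relative binding.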

[2] = system: PHRF1 (RP); conditions: PHRF1 (RP), GST-tagged; arrays performed twice, n of 4
Summary of the method: as §1

[3] = system: ING4; conditions: ING4, GST-tagged; arrays performed twice, n of 4
Summary of the method: as §1

[4] = system: ING5; conditions: ING5, GST-tagged; arrays performed twice, n of 4
Summary of the method: as §1

[5] = system: ING1; conditions: ING1, GST-tagged; arrays performed twice, n of 4
Summary of the method: as §1

[6] = system: CHD4 (PPCC); conditions: CHD4 (PPCC), GST-tagged; arrays performed twice, n of 4
Summary of the method: as §1

[7] = system: KDM5A (3); conditions: KDM5A (3), GST-tagged; arrays performed twice, n of 4
Summary of the method: as §1

[8] = system: BAZ2B; conditions: BAZ2B, GST-tagged; arrays performed twice, n of 4
Summary of the method: as §1

[9] = system: MORC3 (CW); conditions: MORC3 (CW), GST-tagged; arrays performed twice, n of 4
Summary of the method: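 Purified PHD finger domains fused to GST are screened against 293 synthetic histone peptides bearing one or several post-translational modifications. The protein is used at 0.5 μM, and the signal from four replicate arrays is averaged, with standard deviation given.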

[10] = system: PHF23; conditions: PHF23, GST-tagged; arrays performed twice, n of 4
Summary of the method: as §1

[11] = system: AIRE (PP); conditions: AIRE (PP), GST-tagged; arrays performed twice, n of 4
Summary of the method: as §1

[12] = system: TRIM66 (PB); conditions: TRIM66 (PB), GST-tagged; arrays performed twice, n of 4
Summary of the method: as §1

[13] = system: KDM5A (1); conditions: KDM5A (1), GST-tagged; arrays performed twice, n of 4
Summary of the method: as §1

[14] = system: KDM5B (1); conditions: KDM5B (1), GST-tagged; arrays performed twice, n of 4
Summary of the method: as §1

[15] = system: CHD5 (PPCC); conditions: CHD5 (PPCC), GST-tagged; arrays performed twice, n of 4
Summary of the method: as §1

[16] = system: BPTF (PB); conditions: BPTF (PB), GST-tagged; arrays performed twice, n of 4
Summary of the method: as §1

[17] = system: RAG2; conditions: RAG2, GST-tagged; arrays performed twice, n of 4
Summary of the method: as §1

[18] = system: PHF13; conditions: PHF13, GST-tagged; arrays performed twice, n of 4
Summary of the method: as §1

[19] = system: DPF2 (PPC2W2); conditions: DPF2 (PPC2W2), GST-tagged; arrays performed twice, n of 4
Summary of the method: as §1

[20] = system: PHF21A; conditions: PHF21A, GST-tagged; arrays performed twice, n of 4
Summary of the method: as §1

[21] = system: MLL5; conditions: MLL5, GST-tagged; arrays performed twice, n of 4
Summary of the method: as §1

[22] = system: PHF8; conditions: PHF8, GST-tagged; arrays performed twice, n of 4
Summary of the method: as §1

[23] = system: KDM4C (TTP); conditions: KDM4C (TTP), GST-tagged; arrays performed twice, n of 4
Summary of the method: as §1

[24] = system: KDM5B (3); conditions: KDM5B (3), GST-tagged; arrays performed twice, n of 4
Summary of the method: as §1

[25] = system: CHD5 (PCC); conditions: CHD5 (PCC), GST-tagged; arrays performed twice, n of 4
Summary of the method: as §1

[26] = system: ING2; conditions: ING2, GST-tagged; arrays performed twice, n of 4
Summary of the method: as §1

[27] = system: KDM7A; conditions: KDM7A, GST-tagged; arrays performed twice, n of 4
Summary of the method: as §1

[28] = system: PHF2; conditions: PHF2, GST-tagged; arrays performed twice, n of 4
Summary of the method: as §1

[29] = system: SP140L; conditions: SP140L, GST-tagged; arrays performed twice, n of 4
Summary of the method: as §1

[30] = system: DIDO1; conditions: DIDO1, GST-tagged; arrays performed twice, n of 4
Summary of the method: as §1

[31] = system: TAF3; conditions: TAF3, GST-tagged; arrays performed twice, n of 4
Summary of the method: as §1

| Substance | Array Heatmap value (peptide array binding signal) [1] | Array Heatmap value (peptide array binding signal) [2] | Array Heatmap value (peptide array binding signal) [3] | Array Heatmap value (peptide array binding signal) [4] | Array Heatmap value (peptide array binding signal) [5] | Array Heatmap value (peptide array binding signal) [6] | Array Heatmap value (peptide array binding signal) [7] | Array Heatmap value (peptide array binding signal) [8] | Array Heatmap value (peptide array binding signal) [9] | Array Heatmap value (peptide array binding signal) [10] | Array Heatmap value (peptide array binding signal) [11] | Array Heatmap value (peptide array binding signal) [12] | Array Heatmap value (peptide array binding signal) [13] | Array Heatmap value (peptide array binding signal) [14] | Array Heatmap value (peptide array binding signal) [15] | Array Heatmap value (peptide array binding signal) [16] | Array Heatmap value (peptide array binding signal) [17] | Array Heatmap value (peptide array binding signal) [18] | Array Heatmap value (peptide array binding signal) [19] | Array Heatmap value (peptide array binding signal) [20] | also measured |
| --- | --- | --- | --- | --- | --- | --- | --- | --- | --- | --- | --- | --- | --- | --- | --- | --- | --- | --- | --- | --- | --- |
| H3K36me1 (21-44): H3 21-44 | 0.3958 | 0.3839 | 0.3966 | 0.2888 | 0.4725 | 0.5004 | 0.3829 | 0.3935 | 0.3108 | 0.4625 | 0.395 | 0.5169 | 0.422 | 0.6354 | 0.4582 | 0.3001 | 0.2054 | 0.5223 | 0.6617 | 0.4184 | Array Heatmap value (peptide array binding signal) [21]: 0.4918; Array Heatmap value (peptide array binding signal) [22]: 0.3097; Array Heatmap value (peptide array binding signal) [23]: 0.4185; Array Heatmap value (peptide array binding signal) [24]: 0.3806; Array Heatmap value (peptide array binding signal) [25]: 0.7445; Array Heatmap value (peptide array binding signal) [26]: 0.5895; Array Heatmap value (peptide array binding signal) [27]: 0.3181; Array Heatmap value (peptide array binding signal) [28]: 0.4036; Array Heatmap value (peptide array binding signal) [29]: 0.3238; Array Heatmap value (peptide array binding signal) [30]: 0.5926; Array Heatmap value (peptide array binding signal) [31]: 0.2241 |
| H3K36me2 (21-44): H3 21-44 | 0.4835 | 0.4299 | 0.4701 | 0.3689 | 0.5436 | 0.5705 | 0.4688 | 0.4646 | 0.3825 | 0.5508 | 0.4141 | 0.5817 | 0.4698 | 0.6467 | 0.5556 | 0.3564 | 0.2578 | 0.6322 | 0.6298 | 0.4543 | Array Heatmap value (peptide array binding signal) [21]: 0.5622; Array Heatmap value (peptide array binding signal) [22]: 0.3633; Array Heatmap value (peptide array binding signal) [23]: 0.482; Array Heatmap value (peptide array binding signal) [24]: 0.4626; Array Heatmap value (peptide array binding signal) [25]: 0.7486; Array Heatmap value (peptide array binding signal) [26]: 0.637; Array Heatmap value (peptide array binding signal) [27]: 0.3485; Array Heatmap value (peptide array binding signal) [28]: 0.5405; Array Heatmap value (peptide array binding signal) [29]: 0.3575; Array Heatmap value (peptide array binding signal) [30]: 0.6879; Array Heatmap value (peptide array binding signal) [31]: 0.2772 |
| H3K36me3 (21-44): H3 21-44 | 0.4991 | 0.4375 | 0.4583 | 0.3678 | 0.5613 | 0.5871 | 0.4295 | 0.4726 | 0.351 | 0.5628 | 0.4385 | 0.6062 | 0.4698 | 0.6524 | 0.5621 | 0.352 | 0.2418 | 0.6462 | 0.6719 | 0.4681 | Array Heatmap value (peptide array binding signal) [21]: 0.5803; Array Heatmap value (peptide array binding signal) [22]: 0.3546; Array Heatmap value (peptide array binding signal) [23]: 0.4879; Array Heatmap value (peptide array binding signal) [24]: 0.4778; Array Heatmap value (peptide array binding signal) [25]: 0.7751; Array Heatmap value (peptide array binding signal) [26]: 0.6072; Array Heatmap value (peptide array binding signal) [27]: 0.3622; Array Heatmap value (peptide array binding signal) [28]: 0.5258; Array Heatmap value (peptide array binding signal) [29]: 0.3526; Array Heatmap value (peptide array binding signal) [30]: 0.7273; Array Heatmap value (peptide array binding signal) [31]: 0.2673 |
